Assay results from PMC11435438, “Cyclin-Dependent Kinase 8 Represents a Positive Regulator of Cytomegalovirus Replication and a Novel Host Target for Antiviral Strategies” (Pharmaceutics, 2024).
Where two headings read alike, the source gives them in different places.

What was measured:
HCMV AD169-GFP [1] = system: HCMV AD169-GFP; set-up: method as in PMID 35269635; conditions: GFP-based replication assay in HFFs, mean ± SD; cited from earlier work
mock-infected HFFs = conditions: cited from earlier work
HCMV AD169-GFP [2] = assay: microbe, parasite or virus in culture; assay type: cell-based, human cytomegalovirus; conditions: ratio CC50/EC50; HCMV AD169-GFP, HFFs
Method: (i.e., 1 × TCID25/7d). Immediately after virus adsorption, the cells were treated with antiviral compounds or solvent control (DMSO). Infections were performed in biological quadruplicates, or as indicated for individual experiments. The cells were fixed by the addition of 150 µL 10% formalin/well 7 d p.i. (Merlin-GFP 14 d p.i.), and washed with PBS. For GFP or YFP quantitation, the Victor X4 microplate reader (PerkinElmer, Waltham, MA, USA) was primarily used, or as a very sensitive alternative, the ImageXpress® Pico device (Molecular Devices LLC, San Jose, CA, USA). Mean EC50 values of antiviral efficacy were calculated on the basis of three experimental replicates or as indicated (measurement of fluorescence values in quadruplicate), and percentage values were provided relative to the solvent control (DMSO).

[3] = system: HCMV core NEC pUL50-pUL53; assay: Nuclear rim localization of viral core NEC pUL50-pUL53 (IF, confocal imaging); assay type: cell-based, human cytomegalovirus; conditions: 0.5 µM MBV, 5 nM CCT, 2 nM MSC, 0.7 nM BI; HFFs, AD169-UL50-HA MOI 0.05, 7 d p.i.
Method: In order to investigate viral protein expression and localization, 3 × 10^5 HFFs were seeded in 6-well plates one day prior to infection with HCMV AD169-UL50-HA (MOI 0.05). After 90 min of viral absorption, cells were treated with 0.5 µM MBV, 5 nM CCT, 2 nM MSC or 0.7 nM BI-1347. The infected cells were fixed at 7 d p.i., before indirect immunofluorescence staining was performed for viral IE1, pUL50, and pUL53, and signals were evaluated by confocal laser-scanning microscopy (Leica Microsystems, TCS SP5, Wetzlar, Germany). The counterstaining of the nuclei was performed with DAPI.

[4] = mock-infected HFFs, Neutral Red assay, mean ± SD

SMILES | EC50 (HCMV AD169-GFP [1]) [nM] | CC50 (mock-infected HFFs) [nM] | SI (selectivity index) (HCMV AD169-GFP [2]) | nuclear rim localization of core NEC pUL50-pUL53 [3] | CC50 (mock-infected HFFs; [4]) [nM]
CC(C)c1cnn2c(NCc3ccccc3-n3cccn3)nc(OC3CCCNC3)nc12 (stereo not drawn) [LDC4297] | 9 ± 2 | > 10000 | – | – | –
CC(C)Nc1nc2cc(Cl)c(Cl)cc2n1[C@H]1O[C@@H](CO)[C@H](O)[C@@H]1O [MBV, maribavir] | 350 ± 420 | – | >250 | clear disruption of the smooth rim | > 100000
Cc1c(Br)c(Br)c2c3c1nc(N1CCNCC1)n3CCC2 [SEL120] | 79 ± 1 | – | 75 | – | 5900 ± 3850
